The target of experiment [1] is T1, wild-type c-Kit receptor protein endogenously expressed in H526 cells (Homo sapiens, UniProt P10721).
T1 construct: wild-type c-Kit receptor protein that is endogenously expressed in H526 cells; host or cells: H526 human small cell lung cancer cells
The experiment in a line: Assay for inhibition of c-Kit in intact cells (cell-based ELISA of SCF-induced tyrosine phosphorylation). Conditions: read-out: results in the assay above (IC50, inhibition of SCF-induced tyrosine phosphorylation of c-Kit). Here is the method: I. Assay for Inhibition of c-Kit in Intact Cells
The ability of compounds to inhibit the tyrosine kinase activity of c-Kit was determined in a cell-based ELISA assay using the H526 cell line (ATCC # CRL-5811), which was originally derived from a human small cell lung cancer. The assay determines the ability of compounds to block ligand-stimulated tyrosine phosphorylation of the wild-type c-Kit receptor protein that is endogenously expressed in H526 cells. Cells are pre-incubated with compounds at various concentrations prior to addition of stem cell factor (SCF), the ligand for the c-Kit receptor tyrosine kinase. […] The phosphotyrosine content of the receptor protein is then monitored by quantitation of the degree of binding of an antibody that recognizes only the phosphorylated tyrosine residues within the captured protein. The antibody used has a reporter enzyme (e.g. horseradish peroxidase, HRP) covalently attached, such that binding of antibody to phosphorylated c-Kit can be determined quantitatively by incubation with an appropriate HRP substrate. […]
Comparison of the assay signals obtained in the presence of compound with those of the positive and negative controls (cells incubated in the presence or absence of SCF, with no compound added), allows the degree of inhibition of c-Kit receptor tyrosine phosphorylation to be determined over a range of compound concentrations. […]

The subject of experiment [2] is MO7e human leukemia cells. To be noted: cited from earlier work.
For experiment [3], the system named is MO7e human leukemia cells. To be noted: cited from earlier work. This is another data set of the same source.

Counter-ions that a name gives are not always drawn.

T1 sequence (P10721 26-976): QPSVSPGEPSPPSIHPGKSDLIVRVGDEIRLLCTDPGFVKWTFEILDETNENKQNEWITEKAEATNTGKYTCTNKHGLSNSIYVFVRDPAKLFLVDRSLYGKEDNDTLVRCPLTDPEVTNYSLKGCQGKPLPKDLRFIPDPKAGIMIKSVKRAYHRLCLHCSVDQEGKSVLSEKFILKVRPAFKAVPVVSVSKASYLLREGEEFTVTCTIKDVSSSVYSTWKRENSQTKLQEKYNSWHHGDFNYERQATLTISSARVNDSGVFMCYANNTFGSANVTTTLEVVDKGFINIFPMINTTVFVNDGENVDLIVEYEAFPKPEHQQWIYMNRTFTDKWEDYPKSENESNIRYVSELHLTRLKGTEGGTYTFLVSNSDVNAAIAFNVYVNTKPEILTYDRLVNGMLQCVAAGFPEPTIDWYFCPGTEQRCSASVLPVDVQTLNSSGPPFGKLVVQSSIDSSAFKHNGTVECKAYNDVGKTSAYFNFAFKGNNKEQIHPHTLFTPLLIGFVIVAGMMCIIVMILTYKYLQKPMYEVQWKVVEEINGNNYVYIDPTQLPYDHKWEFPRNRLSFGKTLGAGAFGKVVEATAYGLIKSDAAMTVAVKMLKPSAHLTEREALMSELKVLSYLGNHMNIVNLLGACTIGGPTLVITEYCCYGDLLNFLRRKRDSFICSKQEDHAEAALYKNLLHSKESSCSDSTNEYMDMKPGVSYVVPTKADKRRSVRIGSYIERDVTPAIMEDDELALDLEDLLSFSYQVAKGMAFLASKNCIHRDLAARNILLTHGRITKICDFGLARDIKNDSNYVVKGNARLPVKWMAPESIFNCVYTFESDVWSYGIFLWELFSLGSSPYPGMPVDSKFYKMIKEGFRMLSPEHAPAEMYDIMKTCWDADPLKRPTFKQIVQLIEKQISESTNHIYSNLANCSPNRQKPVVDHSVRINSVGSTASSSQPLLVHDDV

`O=C(NCc1cccnc1)c1ccc2c(c1)ncn2-c1ccc(OCCOc2ncc(C(F)(F)F)cc2Cl)cc1` [Compound H13, N-Pyridin-3-ylmethyl-1-{4-[2-(3-chloro-5-trifluoromethylpyridin-2-yloxy)ethoxy]phenyl}-1H-benzimidazole-5-carboxamide]: the IC50 in experiment [1] is over 10 µM.

As for `O=C(NCc1cccnc1)c1ccc2c(c1)ncn2-c1cccc(NS(=O)(=O)c2cccc(Cl)c2)c1` [Compound Q5, 1-(3-{[(3-Chlorophenyl)sulfonyl]amino}phenyl)-N-pyridin-3-ylmethyl-1H-benzimidazole-5-carboxamide], the IC50 in experiment [1] was over 10 µM.

As for `Cc1ccc(NC(=O)c2ccc(CN3CCN(C)CC3)cc2)cc1Nc1nccc(-c2cccnc2)n1` [Gleevec™, imatinib mesylate], the “Kit ligand-stimulated growth of MO7e human leukemia cells” value in experiment [2] (Kit ligand-stimulated) is “inhibited”. In experiment [2] (under Kit ligand-stimulated conditions, MO7e cells), the apoptosis entry is on record as “induces apoptosis”. Moreover, in experiment [3], the “GM-CSF stimulated growth of MO7e human leukemia cells” value is reported as “not affected”.

These data come from patent publication US7521448B2, “N-substituted benzimidazolyl c-Kit inhibitors” (OSI Pharmaceuticals, Inc., priority 2003, dated 2009).
